Consider one substance from patent publication US20260085315A1, “POLYNUCLEOTIDE COMPOSITIONS AND METHODS FOR TREATMENT OF CANCER” (APTAH BIO, INC., priority 2023, published 2026).

d = 2'-deoxy (DNA); m = 2'-O-methyl

For series [1], the system named is neuroblastoma cell line SH-SY5Y. In words: Kinetics of internalization. The note with it: all evaluated times. It counts as cell-based, Human.
Another series concerns U-87MG cell line. In words: MTT cytotoxicity assay on human cancer cell panel (Example 2). It counts as cell-based. The following applies: 0.03-30 μM, 0.1% FBS. On the procedure: (§1) Cell lines were maintained in growth medium with 10% of Fetal Bovine Serum (FBS) until the time of the experiments. Cells were sub-cultured by trypsinization and splitting the cell suspension into fresh flasks and supplementing with fresh culture medium. To perform the assay, the cells were trypsinized, neutralized with complete medium (10% FBS), centrifuged, counted with assistance of a hemocytometer, and plated with the respective media with 10% FBS. Cell lines were plated at a density of 1×10^4 cells per well, other than the SH-SY5Y cell line which was plated at a density of 2.5×10^4. The preparation of the different experimental groups was done with 0.1% FBS (U87MG, MCF-7, SH-SY5Y and 786-O) and 1% FBS (PC-3). The untreated cells were used as negative control (medium only). After 24, 48, 72 and 96 hours of incubation, the effect of ASMO1 and controls on cytotoxicity of cells was determined by MTT assay.
(§2) Briefly, plates were taken out and 20 μl of 5 mg/ml of MTT 3-(4,5-dimethythiazol-2-yl)-2,5-diphenyl tetrazolium bromide solution was added to all the wells. Cells were incubated for 3 h at 37° C. After this period, supernatant was aspirated and 100 μl of DMSO was added to each well to dissolve formazan crystals. The absorbance of each well was then read at 540 nm using Synergy HT microplate reader.
(§3) Cells were plated and treated with 7 different concentrations (0.03, 0.1, 0.3, 1, 3, 10 and 30 μM) of APT20TTMG with medium (0.1% FBS). MTT assay was performed in 4 distinct times and graphs are represented as absorbance (540 nm). (A) 24 hours of incubation. (B) 48 hours of incubation. (C) 72 hours of incubation. (D) 96 hours of incubation.
On the technique in general: Tetrazolium dyes change colour on reduction, which living cells bring about.

In series [2] the test system is MCF-7 cell line. The series is described as above. It counts as cell-based. The note with it: 24, 48, 72, 96 hours; 0.03-30 μM; 0.1% FBS. On the procedure: as §1, §2, §3
Another series deals with SH-SY5Y cell line. In words: Mitochondrial membrane potential. Format: cell-based, Human. The following applies: all treatments vs non-treated cells.
Series [3] in a line: Body weight in xenograft study. It counts as in vivo, athymic nude mice. The note with it: 20 mg/kg i.v. q3d, 3 weeks. On the procedure:
Body weight and tumor size were measured weekly twice using digital caliper. At termination, blood was collected through retro-orbital route. Serum/plasma was separated and stored at deep freezer (−20° C.). Post blood collection, animals were humanely sacrificed by CO2 asphyxiation as per latest guidelines issued by CPCSEA. All the vital organ (brain, kidney, liver, lungs, heart) and tumor were dissected out. Vital organs were fixed in 10% NBF and stored. Tumor tissue was dissected out, weighed and portion of tumor tissue was fixed in 10% NBF and another portion is snap frozen and stored at deep freezer (−80° C.).
As shown in FIG. 34A-C, tumor fragments from the U-87MG cell line were implanted in the animals and once the tumor size reached ˜100 mm^3 animals were randomized into 3 experimental groups (G1, G2, and G3). G1: Vehicle, (G2) Reference Item Temozolomide, and (G3) APT20TTMG for a total of 22 days. (A) The tumor volume of the animals was measured twice/a week. (B) Animals were weighed throughout the experiment and the change in weight gain compared to pre-treatment weight was plotted. (C) After the euthanasia of the animals, the tumors were removed and weighed.

Series [4] concerns MCF-7 cell line. In words: Annexin V/propidium iodide apoptosis assay. The note with it: 0.25, 0.5, 1 μM; 24 hours; vs non-treated cells. Format: cell-based, Human. The procedure:
The apoptosis-inducing potential of ASMO APT20TTMG was evaluated using the method of double labeling of cells with Annexin V and propidium iodide. Annexin V is a peptide that has a high affinity for phosphatidyl serine, a phospholipid distributed asymmetrically in the inner leaflet of the lipid bilayer of membrane plasma under physiological conditions. During the process of cell death by apoptosis, phospholipids asymmetric distribution is lost and phosphatidyl serine is translocated to the outer leaflet of the plasma membrane through a process of externalization. The measurement of the exposure of phosphatidylserine could be detected by Annexin V conjugated to fluorochromes. On the other hand, propidium iodide is a DNA intercalator that only can penetrate the interior of the cell in cases where the selective permeability of the plasma membrane is compromised, which clearly occurs during several processes of cell death.
Pro-apoptotic potential of APT20TTMG was evaluated in the MCF-7 cell line, using the Apoptosis Detection with Annexin V/Propidium Iodide kit (eBioScience). First, cells were cultured in 24-well plates at a density of 1×10^5 cells/well for 24 hours for adhesion. […] Finally, the samples were labeled with Propidium Iodide and analyzed in a flow cytometer (BD FACSCanto II, BD Biosciences) through the acquisition of 10.000 gated events/sample.

A further series has as its system MAPT. In words: MAPT expression by qPCR in SK-N-SH. It counts as cell-based. The following applies: 0.5 μM; for reduction of MAPT expression: relative to Lipofectamine 3000 only. On the procedure:
FIG. 27A-27B illustrates MAPT expression and tau quantification obtained after 24, 48, 96 and 144 hours of incubation with ASMO1 (0.5 μM) in neuroblastoma cell line.
At all time points cells were rinsed once with PBS, before proceeding with RNA extraction using the RNeasy Plus Kit (Qiagen). RNA (0.1-1 μg) was converted to cDNA using the SuperScript IV First-Strand Synthesis System (Thermo Fisher), following manufacturer instructions. After RNA removal, 5-10 ng of cDNA were amplified by qPCR. The following Taqman probes (Thermo Fisher) were used: Total TAU (MAPT, Assay ID: Hs00902193_m1), GAPDH (GAPDH, Assay ID: Hs99999905_m1). Gene expression was analyzed using the Applied Biosystems QuantStudio™ 12K Flex Real-Time PCR System. Quantification of gene expression was performed using the comparative threshold cycle (2^-ΔΔCT) Livak method, relative to Lipofectamine 3000 only treated cells. Gene expression was normalized to the reference gene GAPDH.
A general note: In qPCR the cycle at which signal appears reflects the starting amount.

Regarding “APT20TTMG: engineered polynucleotide ASMO1, 24 nt, SEQ ID NO: 3 gtccactaacctttcaggccagcg; targeting moieties 5′-GTCCA-3′ and 5′-CG-3′, U1 snRNP recruiting moiety (GTCCACTAACCTTTCAGGCCAGCG; sugars from the 5' end m5 d14 m5, all phosphorothioate, methylation of C and T or U not given here)”, in series [1], the internalization entry is “around 50%”. The “cell viability (MTT, absorbance 540 nm)” value in the series on U-87MG cell line (72 and 96 hours) was “like those of the vehicle group”; in the series with U-87MG cell line (24 hours, vs negative control and vehicle), “trend of reduction in cell viability”; in the series with U-87MG cell line (48 hours), “reduction in absorbance values”. Also, the “cytotoxic or cytostatic effect (MTT)” value with MCF-7 cell line [2] is recorded as “does not exert a cytotoxic or cytostatic effect”. Besides, in the series on SH-SY5Y cell line, the mitochondrial membrane potential entry is on record as “no change in mitochondrial membrane potential”. The “body weight of animals” value in series [3] is recorded as “gain weight throughout the experiment”. Moreover, the “proportion of viable cells, recent/late apoptosis or necrosis” value with MCF-7 cell line [4] was “no change in any of the evaluated parameters”. Besides, the MAPT expression result in the series with MAPT (24 hours) was “transient increase”. Also, the figures for the “reduction of MAPT expression” value in the series on MAPT (96 h) and in the series with MAPT (144 h) were 82±1.2% and 74±4.3%, respectively.
